IC50 data for 27 compounds are collected here from patent publication US9221832B2, “Heterocyclic amide derivatives as P2X7 receptor antagonists” (ACTELION PHARMACEUTICALS LTD., priority 2011, dated 2015).

Usually IC50 stands for the concentration that gives 50% inhibition.

In this test the target is human recombinant P2X7 receptor (Homo sapiens (Human), UniProt Q99572). Kind of test: YO-PRO assay: P2X7 receptor antagonistic activity. The class given is cell-based. Particulars: HEK cells expressing human P2X7. How it is done: The P2X7 receptor antagonistic activity of the compounds of formula (I) is determined in accordance with the following experimental method.
Sequence of human recombinant P2X7 receptor (Q99572 whole entry): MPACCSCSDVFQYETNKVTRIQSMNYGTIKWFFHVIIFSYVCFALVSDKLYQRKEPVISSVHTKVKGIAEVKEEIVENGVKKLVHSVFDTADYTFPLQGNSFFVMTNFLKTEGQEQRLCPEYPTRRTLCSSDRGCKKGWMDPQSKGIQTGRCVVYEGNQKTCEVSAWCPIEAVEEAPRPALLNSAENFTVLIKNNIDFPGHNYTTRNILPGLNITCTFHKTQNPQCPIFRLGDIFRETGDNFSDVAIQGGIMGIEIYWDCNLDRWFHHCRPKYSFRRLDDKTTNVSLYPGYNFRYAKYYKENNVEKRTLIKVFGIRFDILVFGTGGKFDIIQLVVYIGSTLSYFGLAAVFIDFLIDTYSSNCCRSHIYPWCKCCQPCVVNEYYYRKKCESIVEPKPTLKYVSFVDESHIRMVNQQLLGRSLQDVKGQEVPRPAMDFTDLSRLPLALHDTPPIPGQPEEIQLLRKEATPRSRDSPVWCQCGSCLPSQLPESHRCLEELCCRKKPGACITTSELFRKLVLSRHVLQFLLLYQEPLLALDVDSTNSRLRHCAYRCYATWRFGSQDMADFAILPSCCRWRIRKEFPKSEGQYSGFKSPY
Cell Line Generation and YO-PRO Assay
Cell line generation was performed in general according to established molecular cloning protocols. Specifically, RNA was extracted from human whole blood using the Qiagen RNeasy kit (Qiagen, CH) according to the manufacturer's instructions. Subsequently cDNA was made (Superscript II, Invitrogen AG, CH) and the human P2X7 gene (genbank ref. BC011913) was amplified with the following primers: […] and […]. The amplified sequence was subsequently ligated into a pcDNA3.1 (+) NotI, NheI digested plasmid. […] Following a 24 h exposure to DNA, cells were trypsinized and re-seeded at low density in the presence of 250 μg Geneticin. Geneticin resistant cells were then selected during two consecutive rounds of cloning by serial limiting dilution with visual inspection. Individual clones were screened for P2X7 expression by applying ATP and recording the resultant uptake of YO-PRO1. Specific cell clones were chosen based on RNA and protein expression. HEK cells stably expressing P2X7 were used to screen drugs using the YO-PRO1 assay. Cells were grown to confluency in adherent culture at 37° C. in a humidified 5% CO2 incubator (split 1/5 every 3-4 days with DMEM, 10% FCS, 1% Penicillin/Streptomycin, 250 μg/ml Geneticin). Adherent cells were detached by incubation with Trypsine (1 ml per 165 cm^2 dish) for 2 minutes, then washed off with 10 ml PBS (without Mg^2+ and Ca^2+), and resuspended in DMEM, 10% FCS, 1% Penicillin/Streptomycin, no Geneticin. […] During this time period, four time points were taken. Each time point comprised the average of several measurements made within a few seconds. […] The FLIPR tetra was equipped with Molecular Devices Screen Works system control software to define and run experimental protocols. […] For IC50 measurements the maximum intensity is plotted against the concentration of compound to determine IC50 values.
Regarding `O=C(Cc1cccc(Cl)c1Cl)NC1CCOc2ncccc21` (racemic) [Example 54, rac-2-(2,3-Dichloro-phenyl)-N-(3,4-dihydro-2H-pyrano[2,3-b]pyridin-4-yl)-acetamide], the IC50 was determined as 67 nM.
Turning to `Cc1ccc2c(n1)OCC2NC(=O)Cc1cccc(C(F)(F)F)c1Cl` (racemic) [Example 134, rac-2-(2-Chloro-3-trifluoromethyl-phenyl)-N-(6-methyl-2,3-dihydro-furo[2,3-b]pyridin-3-yl)-acetamide], the concentration for half-maximal inhibition (IC50) amounted to 21 nM.
With `O=C(Cc1ccc(C(F)(F)F)cc1)NC1COc2ncccc21` (racemic) [Example 16, rac-N-(2,3-Dihydro-furo[2,3-b]pyridin-3-yl)-2-(4-trifluoromethyl-phenyl)-acetamide], the concentration for half-maximal inhibition (IC50) is 1170 nM.
On to `Cc1cc(Cl)cc(Cl)c1CC(=O)NC1CCOc2ncccc21` (single isomer, unassigned) [Example 28, 2-(2,4-Dichloro-6-methyl-phenyl)-N-(3,4-dihydro-2H-pyrano[2,3-b]pyridin-4-yl)-acetamide], for which the concentration for half-maximal inhibition (IC50) came to 29 nM.
Regarding `Cc1ccc(CC(=O)NC2COc3ncccc32)cc1` (racemic) [Example 14, rac-N-(2,3-Dihydro-furo[2,3-b]pyridin-3-yl)-2-p-tolyl-acetamide], the half-maximal inhibitory concentration (IC50) is greater than 5430 nM.
The same measure for `O=C(Cc1c(F)cc(Cl)cc1Cl)NC1COc2ncccc21` (racemic) [Example 76, rac-2-(2,4-Dichloro-6-fluoro-phenyl)-N-(2,3-dihydro-furo[2,3-b]pyridin-3-yl)-acetamide]: 90 nM.
The same measure for `O=C(Cc1ccccc1Cl)NC1CCOc2ncccc21` (racemic) [Example 44, rac-2-(2-Chloro-phenyl)-N-(3,4-dihydro-2H-pyrano[2,3-b]pyridin-4-yl)-acetamide]: 2000 nM; for `COc1ccc(CC(=O)NC2COc3ncccc32)c(F)c1` (racemic) [Example 20, rac-N-(2,3-Dihydro-furo[2,3-b]pyridin-3-yl)-2-(2-fluoro-4-methoxy-phenyl)-acetamide]: 578 nM.
As for `Cc1cc(Cl)cc(Cl)c1CC(=O)NC1COc2nccc(C)c21` (racemic) [Example 138, rac-2-(2,4-Dichloro-6-methyl-phenyl)-N-(4-methyl-2,3-dihydro-furo[2,3-b]pyridin-3-yl)-acetamide], the 50% inhibitory concentration (IC50) was 99 nM.
In the case of `Cc1cc(Cl)cc(Cl)c1CC(=O)NC1CCOc2ncccc21` (single isomer, unassigned) [Example 29, 2-(2,4-Dichloro-6-methyl-phenyl)-N-(3,4-dihydro-2H-pyrano[2,3-b]pyridin-4-yl)-acetamide], the IC50 was 172 nM.
In the case of `O=C(Cc1cc(Cl)ccc1C(F)(F)F)NC1COc2ncccc21` (racemic) [Example 43, rac-2-(5-Chloro-2-trifluoromethyl-phenyl)-N-(2,3-dihydro-furo[2,3-b]pyridin-3-yl)-acetamide], the IC50 worked out at 8050 nM.
In the case of `CCOc1cc(C)nc2c1C(NC(=O)Cc1cccc(C(F)(F)F)c1Cl)CO2` (racemic) [Example 136, rac-2-(2-Chloro-3-trifluoromethyl-phenyl)-N-(4-ethoxy-6-methyl-2,3-dihydro-furo[2,3-b]pyridin-3-yl)-acetamide], the half-inhibitory concentration (IC50) was greater than 10000 nM.
Regarding `CC(C(=O)NC1COc2ncccc21)c1ccc(Cl)cc1Cl` (single isomer, unassigned) [Example 92, 2-(2,4-Dichloro-phenyl)-N-2,3-dihydro-furo[2,3-b]pyridin-3-yl-propionamide], the half-inhibitory concentration (IC50) stood at 9 nM.
Take `N#Cc1c(Cl)ccc(CC(=O)NC2COc3ncccc32)c1Cl` (racemic) [Example 112, rac-2-(2,4-Dichloro-3-cyano-phenyl)-N-(2,3-dihydro-furo[2,3-b]pyridin-3-yl)-acetamide]: the half-maximal inhibitory concentration (IC50) is 219 nM.
In the case of `O=C(NC1COc2ncccc21)C1CCc2cc(Cl)cc(Cl)c21` (single isomer, unassigned) [Example 146, 5,7-dichloro-N-(2,3-dihydrofuro[2,3-b]pyridin-3-yl)-2,3-dihydro-1H-indene-1-carboxamide] it was 160 nM; in that of `Cc1c(Cl)cc(C(F)(F)F)c(CC(=O)NC2COc3ncccc32)c1F` (racemic) [Example 40, rac-2-(4-Chloro-2-fluoro-3-methyl-6-trifluoromethyl-phenyl)-N-(2,3-dihydro-furo[2,3-b]pyridin-3-yl)-acetamide], 1580 nM.
The same measure for `O=C(Cc1c(F)ccc(Cl)c1Cl)NC1COc2ncccc21` (racemic) [Example 67, rac-2-(2,3-Dichloro-6-fluoro-phenyl)-N-(2,3-dihydro-furo[2,3-b]pyridin-3-yl)-acetamide]: 210 nM; for `Cc1cc(Cl)cc(Cl)c1CC(=O)NC1COc2cnccc21` (single isomer, unassigned) [Example 101, 2-(2,4-Dichloro-6-methyl-phenyl)-N-2,3-dihydro-furo[2,3-c]pyridin-3-yl-acetamide]: 598 nM.
On to `O=C(Cc1ccc(F)cc1F)NC1CCOc2ncccc21` (racemic) [Example 51, rac-2-(2,4-Difluoro-phenyl)-N-(3,4-dihydro-2H-pyrano[2,3-b]pyridin-4-yl)-acetamide], for which the 50% inhibitory concentration (IC50) was determined as 1690 nM.
In the case of `O=C(Cc1ccc(C(F)(F)F)cc1Cl)NC1COc2ncccc21` (racemic) [Example 88, rac-2-(2-Chloro-4-trifluoromethyl-phenyl)-N-(2,3-dihydro-furo[2,3-b]pyridin-3-yl)-acetamide] it was 72 nM.
In the case of `Cc1ccc2c(n1)OCC2NC(=O)Cc1c(C)cc(Cl)cc1Cl` (racemic) [Example 133, rac-2-(2,4-Dichloro-6-methyl-phenyl)-N-(6-methyl-2,3-dihydro-furo[2,3-b]pyridin-3-yl)-acetamide] it was 43 nM; in that of `N#Cc1ccc(CC(=O)NC2COc3ncccc32)cc1` (racemic) [Example 13, rac-2-(4-Cyano-phenyl)-N-(2,3-dihydro-furo[2,3-b]pyridin-3-yl)-acetamide], greater than 5420 nM; in that of `N#Cc1cccc(CC(=O)NC2COc3ncccc32)c1Cl` (racemic) [Example 75, rac-2-(2-Chloro-3-cyano-phenyl)-N-(2,3-dihydro-furo[2,3-b]pyridin-3-yl)-acetamide], 22 nM.
With `O=C(Cc1cccc(C(F)(F)F)c1Cl)NC1COc2cncc(C3CC3)c21` (racemic) [Example 132, rac-2-(2-Chloro-3-trifluoromethyl-phenyl)-N-(4-cyclopropyl-2,3-dihydro-furo[2,3-c]pyridin-3-yl)-acetamide], the 50% inhibitory concentration (IC50) was determined as 506 nM.
Consider `O=C(CCc1ccc(Cl)cc1Cl)NC1CCOc2ncccc21` (racemic) [Example 65, rac-3-(2,4-Dichloro-phenyl)-N-(3,4-dihydro-2H-pyrano[2,3-b]pyridin-4-yl)-propionamide], for which the IC50 was determined as 3010 nM.
Turning to `NC(=O)c1cccc(CC(=O)NC2COc3ncccc32)c1Cl` (racemic) [Example 80, rac-2-Chloro-3-[(2,3-dihydro-furo[2,3-b]pyridin-3-ylcarbamoyl)-methyl]-benzamide], the 50% inhibitory concentration (IC50) was 1240 nM.
`N#Cc1ccccc1CC(=O)NC1COc2ncccc21` (racemic) [Example 10, rac-2-(2-Cyano-phenyl)-N-(2,3-dihydro-furo[2,3-b]pyridin-3-yl)-acetamide]: the 50% inhibitory concentration (IC50) turned out to be 2980 nM.
